Marks after values point to notes of the source that are not given here.
Legend:
Type in all cases: in vivo
Kunming mice [1] = test: Influence on autonomic activity of normal mice (ZIL-2 mice autonomic activity meter, counts within 10 min); details: intragastric, x ± s; for Times of activities in 1 h after drug administration/10 min: 1 h after administration; for Times of activities in 2 h after drug administration/10 min: 2 h after administration; for Times of activities in 24 h after drug administration/10 min: 24 h after administration
Text: (§1) 1.1 Animals for experiments: Kunming mice, weighting 18.9˜22.2 g for females, and 20.2˜23.0 g for males, licensed under SCXK-(Ji) 2007-0003, and provided by The experimental animal centre, Jilin University.
(§2) 1.2 Chemicals for experiments: The flavone derivatives provided in Examples 1-41 and the flavanone derivatives provided in Examples 42-71 are all formulated with 0.5% sodium carboxymethyl cellulose as solutions with required concentrations.
(§3) 1.3 Grouping of animals: 6420 animals are employed in the entire experiments and 2140 of the animals are randomly divided into 214 groups by gender, and the […] include: control group, low dosage group for each experimental drugs (25 mg/kg), medium dosage group for each experimental drugs (50 mg/kg), and high dosage group for each experimental drugs (100 mg/kg). Each group has 10 animals and either female or male constitutes half of the group. The groups are used in behavior observation and voluntary action observation. The other 4280 animals are randomly divided into 214 groups by gender respectively (the grouping way is the same with that described above). Each group has 20 animals and either female or male constitutes half of the group. In each group, 10 animals are used in hypnosis experimentations with pentobarbital sodium doses below the threshold, and the other 10 animals are used hypnosis experimentations with pentobarbital sodium doses at the threshold.
1.4 Experimental instrument and agents: ZIL-2 mice autonomic activity meter, production of Institute of Materia Medica of Chinese Academy of Medical Sciences; pentobarbital sodium, Lot: 100808, 25 g/bottle, Beijing Chemical Reagent Company equipment imported from Germany.
1.5.2 Influence on Autonomic Activity of Normal Mice
After observing the general behavior, in 1 h, 2 h and 24 h after drug administration, respectively, ZIL-2 mice autonomic activity meter is put respectively. Number of autonomic activities of each group of mice is measured within 10 min. Results among groups are compared.
(§4) Number of autonomic activities is detected by leneve Test for homogeneity of variance. If the homogeneity of variance is good (P>0.05), statistical analysis is performed with ANOVA. If ANOVA have statistical significance (P≦0.05), Dunnett's test for multiple comparisons analysis is performed. Number of animals of sleeping mice is applied of ANOVA. Incidence rate of animal asleep is applied of χ2 test. Sleep latency and sleep duration are recorded in min, averaged by group, represented by standard deviation, and undergo statistical analysis using ANOVA.

Kunming mice [2] = test: Influence on hypnosis effect with pentobarbital sodium doses at the threshold (50 mg/kg i.p.); details: pentobarbital sodium 50 mg/kg i.p. 60 min later, x ± s, n = 10
Text: as §1, §2, §3
1.5.4 Influence on Hypnosis Effect with Mice Pentobarbital Sodium Doses at the Threshold
(§5) The drug is intragastric administered in mice for single time, 2 animals of each group are given drug per round with the dosing interval of 40 min (±5 min). According to the administration round, in 60 min (±5 min) of each round after the drug administration, the animals were intraperitoneally injected 0.3% sodium pentobarbital 50 mg/kg, respectively. Time to fall asleep (sleep latency) and sleep duration of the animals were recorded within under sleep determination standard of loss of righting reflex more than 1 min.
as §4

Kunming mice [3] = test: Influence on hypnosis effect with pentobarbital sodium doses below the threshold (25 mg/kg i.p.); details: pentobarbital sodium 25 mg/kg i.p. 60 min later, sleep observed in 30 min, n = 10
Text: as §1, §2, §3
1.5.3 Influence on Hypnosis Effect with Mice Pentobarbital Sodium Doses Below the Threshold
as §5, with “25” for “50”, “Sleep condition” for “Time to fall asleep (sleep latency) and sleep duration”, “observed” for “recorded”, “30 min (under” for “under”, “min). After animals undergo loss of righting reflex, number of the animals is recorded, to calculate sleep percentage.” for “min.”
as §4

[4] = 25 mg/kg intragastric single dose
[5] = 50 mg/kg intragastric single dose
[6] = 100 mg/kg intragastric single dose
[7] = test drug 25 mg/kg intragastric single dose
[8] = test drug 50 mg/kg intragastric single dose
[9] = test drug 100 mg/kg intragastric single dose

Row | SMILES | Times of activities in 1 h after drug administration/10 min (Kunming mice [1]; 25 mg/kg, n = 10) | Times of activities in 2 h after drug administration/10 min (Kunming mice [1]; 25 mg/kg, n = 10) | Times of activities in 24 h after drug administration/10 min (Kunming mice [1]; 25 mg/kg, n = 10) | Times of activities in 1 h after drug administration/10 min (Kunming mice [1]; 50 mg/kg, n = 10) | Times of activities in 2 h after drug administration/10 min (Kunming mice [1]; 50 mg/kg, n = 10) | Times of activities in 24 h after drug administration/10 min (Kunming mice [1]; 50 mg/kg, n = 10) | Times of activities in 1 h after drug administration/10 min (Kunming mice [1]; 100 mg/kg, n = 10) | Times of activities in 2 h after drug administration/10 min (Kunming mice [1]; 100 mg/kg, n = 10) | duration of sleep (Kunming mice [2]; [4]) [min] | time to sleep (Kunming mice [2]; [4]) [min] | duration of sleep (Kunming mice [2]; [5]) [min] | time to sleep (Kunming mice [2]; [5]) [min] | duration of sleep (Kunming mice [2]; [6]) [min] | time to sleep (Kunming mice [2]; [6]) [min] | Number of sleeping animals (Kunming mice [3]; [7]) | rate of sleeping (%) (Kunming mice [3]; [7]) | Number of sleeping animals (Kunming mice [3]; [8]) | rate of sleeping (%) (Kunming mice [3]; [8]) | Number of sleeping animals (Kunming mice [3]; [9]) | rate of sleeping (%) (Kunming mice [3]; [9]) | further results
1 | COc1cc(OC)c2c(=O)cc(-c3ccc(OC)c(O)c3)oc2c1 [Example 4, 3′-hydroxyl-5,7,4′-trimethoxyl-flavone] | 258.2 ± 44.2 /10 min | 250.3 ± 53.9 /10 min | 309.1 ± 76.1 /10 min | 219.3 ± 42.7 /10 min | 223.5 ± 41.3 /10 min | 318.4 ± 96.3 /10 min | 124.2 ± 49.1 /10 min | 127.2 ± 41.9 /10 min | 63.65 ± 19.54 | 3.75 ± 1.81 | 69.91 ± 19.82 | 3.41 ± 1.69 | 81.66 ± 30.31 | 2.51 ± 1.61 | 6 | 60** % | 7 | 70** % | 8 | 80*** % | Times of activities in 24 h after drug administration/10 min (Kunming mice [1]; 100 mg/kg, n = 10): 303.2 ± 90.1 /10 min
2 | COc1ccc(-c2cc(=O)c3c(OC)cc(O)cc3o2)cc1OC [Example 5, 7-hydroxyl-5,3′,4′-trimethoxyl-flavone] | 265.2 ± 50.1 /10 min | 243.2 ± 42.8 /10 min | 292.8 ± 82.1 /10 min | 175.4 ± 50.3 /10 min | 190.2 ± 56.8 /10 min | 295.3 ± 91.3 /10 min | 120.2 ± 39.0 /10 min | 116.3 ± 49.2 /10 min | 59.92 ± 17.44 | 3.39 ± 1.71 | 74.82 ± 22.78 | 3.26 ± 1.47 | 89.01 ± 18.25 | 2.23 ± 1.19 | 6 | 60** % | 8 | 80*** % | 9 | 90*** % | Times of activities in 24 h after drug administration/10 min (Kunming mice [1]; 100 mg/kg, n = 10): 283.5 ± 94.0 /10 min
3 | COc1cc(OC)c2c(=O)cc(-c3ccc(OC)c(OC)c3)oc2c1 [Example 7, 5,7,3′,4′-tetramethoxyl-flavone] |  |  |  |  |  |  |  |  | 61.21 ± 22.82 | 3.25 ± 1.93 | 79.27 ± 21.17 | 3.03 ± 1.41 | 87.43 ± 21.56 | 2.32 ± 1.21 | 5 | 50** % | 6 | 60** % | 9 | 90*** % | Times of activities in 1 h after drug administration/10 min (Kunming mice [1]; 25 mg/kg, n = 10, 25 mg/kg): 248.5 ± 55.1 /10 min; Times of activities in 2 h after drug administration/10 min (Kunming mice [1]; 25 mg/kg, n = 10, 25 mg/kg): 234.1 ± 45.8 /10 min; Times of activities in 24 h after drug administration/10 min (Kunming mice [1]; 25 mg/kg, n = 10, 25 mg/kg): 303.4 ± 75.8 /10 min; Times of activities in 1 h after drug administration/10 min (Kunming mice [1]; 50 mg/kg, n = 10, 50 mg/kg): 184.7 ± 52.6 /10 min; Times of activities in 2 h after drug administration/10 min (Kunming mice [1]; 50 mg/kg, n = 10, 50 mg/kg): 164.4 ± 45.8 /10 min; Times of activities in 24 h after drug administration/10 min (Kunming mice [1]; 50 mg/kg, n = 10, 50 mg/kg): 318.5 ± 83.6 /10 min; Times of activities in 1 h after drug administration/10 min (Kunming mice [1]; 100 mg/kg, n = 10, 100 mg/kg): 125.2 ± 44.5 /10 min; Times of activities in 2 h after drug administration/10 min (Kunming mice [1]; 100 mg/kg, n = 10, 100 mg/kg): 122.2 ± 48.6 /10 min; Times of activities in 24 h after drug administration/10 min (Kunming mice [1]; 100 mg/kg, n = 10, 100 mg/kg): 329.8 ± 53.2 /10 min
4 | COc1ccc(-c2cc(=O)c3c(OC)c(OC)c(OC)c(OC)c3o2)cc1 [Example 8, 5,6,7,8,4′-penta methoxyl-flavone] | 301.3 ± 43.5 /10 min | 290.2 ± 39.6 /10 min | 286.4 ± 75.2 /10 min | 262.1 ± 55.5 /10 min | 244.7 ± 53.9 /10 min | 299.8 ± 76.4 /10 min | 185.7 ± 41.6 /10 min | 167.2 ± 48.5 /10 min | 21.52 ± 16.93 | 5.40 ± 1.83 | 29.13 ± 26.44 | 5.05 ± 1.73 | 66.82 ± 33.63 | 3.21 ± 1.32 | 5 | 50** % | 6 | 60** % | 8 | 80*** % | Times of activities in 24 h after drug administration/10 min (Kunming mice [1]; 100 mg/kg, n = 10): 280.4 ± 84.2 /10 min
